Measured values as given in patent publication US20070166251A1, “Composition and method for treating hyperpigmented skin” (LIPO CHEMICALS INC., priority 2005, published 2007).

How the values were obtained:
[1] = clinical study of skin brightening and skin redness (chromameter readings); type: in vivo, human; conditions: 0.3% emulsion twice daily
Procedure: The skin brightening efficacy of p-HCA in ethoxydyglycol versus kojic acid also was tested in a clinical study. In this study, an emulsion containing 0.3%, by weight, p-HCA or kojic acid was used on twenty, mostly female, subjects between the ages of 30 to 50 years. The test composition was applied to the abdomen twice daily (a.m. and p.m.). The test was conducted for eight weeks, and chromameter readings were taken at baseline, and after 2, 4, 6, and 8 weeks.

[2] = skin penetration, Franz diffusion cells; type: in vitro ADME, human
Procedure: In another experiment, a 10% solution of p-HCA in ethoxydiglycol first was prepared. This solution was added to a skin care emulsion in a sufficient amount to provide either 0.3% or 0.1%, by weight, of p-HCA in the final composition. As a comparative example, 0.3%, by weight, of solid p-HCA was added to the same skin care emulsion. The skin care emulsion to which solid p-HCA or the p-HCA solution was added had the following formula (w/w%): • 85.35 water • 0.2 methylparaben • 0.35 xanthan gum • 5.0 butylene glycol • 4.0 sesame oil • 2.5 glyceryl stearate • 0.5 PEG-150 distearate • 1.25 neopentyl glycol dicaprylate/dicaprate • 0.6 emulsifying wax • 0.25 imidazolidinyl urea.
The skin care emulsions containing p-HCA were applied to cadaver skin. Skin penetration of p-HCA was studied using Franz diffusion cells, n=5 (Permegear, Bethlehem, Pa.). The receptor contained an isotonic phosphate buffer with 30% ethanol, and was stirred continuously at 600 rpm. Samples of dermatomed human cadaver skin (NDRA, Philadelphia) were placed on the cells and prehydrated for 1 hour prior to the experiment. One milliliter of each formulation was added to the donor compartment of each cell, which was covered tightly with PARAFIL®. Samples (300 μl) were withdrawn from the receptor compartment every hour over 8 hours, and replaced with 300 μl of fresh receptor solution. After 8 hours, the skin was removed and cut into small pieces. The skin pieces were homogenized using a Kinematica POLYTRON® homogenizer and centrifuged. The supernatant was filtered through 0.22μ filters, and the p-HCA content was quantified.
All samples were analyzed by HPLC on a Hypersil ODS C18 column using water, methanol, glacial acetic acid (55:45:1) as the mobile phase at a flow rate of 1 ml/min and detection at 270 nm. Lag time and flux were obtained from permeation profiles and skin drug content also was recorded.
This experiment was repeated using PEG-4 as the solvent for the p-HCA.
The method used to determine skin permeability was the Franz diffusion method disclosed above. […] In particular, 3.9 mcg/ml of p-HCA was found in the receptor compartment of the skin (i.e., permeated through the skin) as opposed to 16.3 mcg/ml p-HCA found within the skin.

[3] = metabolism of p-HCA in homogenized human skin; type: in vitro ADME; conditions: eight hours of incubation with skin enzymes, 37° C.
Procedure: First, to confirm in vivo activity of p-HCA, the metabolism of p-HCA in the skin was determined. In this test, human skin was homogenized in a PBS (phosphate-buffered saline)-ethanol solution, followed by dissolution of p-HCA. The solution was incubated at 37° C. for 8 hours. Samples were taken after 0, 4, and 8 hours, and were centrifuged. The supernatant was filtered and analyzed by HPLC. […] The amount of p-HCA that is metabolized was considered insignificant with respect to an efficacious treatment of hyperpigmentation.

[4] = solubility of p-HCA in various solvents (HPLC); type: physicochemical
Procedure: Various solvents were tested for an ability to dissolve p-HCA and provide a suitable composition for topical application to efficaciously treat hyperpigmentation, e.g., to allow the HCA to permeate the surface of the skin and deposit the p-HCA at the site of melanin formation. p-HCA was added to various solvents, then sonicated for two hours at 35° C. until no further HCA was dissolved. The samples were cooled to room temperature (25° C.) and allowed to stabilize for 15 hours. The undissolved p-HCA was allowed to settle, the supernatant liquid was filtered through a 0.2 micron syringe filter. Approximately 0.08 g of this filtered material was weighed into a 25 ml volumetric flask and diluted to volume with HPLC mobile phase. Two standards were analyzed by HPLC and compared to the two samples. All samples were analyzed by HPLC on a Hypersil ODS C18 column using water, methanol, glacial acetic acid (55:45:1) as the mobile phase. The flow rate was 1 ml/min and the wavelength for detection was 270 nm.

[5] = ethoxydiglycol vs solid p-HCA, FIG. 1 and Table 1
[6] = formula: 0.5% p-HCA, 53% ethanol, Carbopol 981, glycerin, triethanolamine, water
[7] = in presence of ethoxydiglycol vs powder form

O=c1cc(CO)occ1O [kojic acid]
effect on skin redness ([1]; throughout the eight-week clinical trial): did not reduce redness
effect on skin redness ([1]; weeks 4 and 8): induced redness

O=C(O)C=Cc1ccc(O)cc1 [p-HCA, p-hydroxycinnamic acid]
deposition of p-HCA on the skin compared to a control ([2]; PEG-4 as the solvent for the p-HCA): significantly increased
elevation of deposition of p-HCA in the skin [2, 5]: 93%
increase of flux into the skin [2, 5]: 107%
amount of HCA deposited in the skin relative to amount transmitted through the skin [2, 6]: four times greater
p-HCA found in the receptor compartment (permeated through the skin) [2, 6]: 3.9 µg/mL
p-HCA found within the skin [2, 6]: 16.3 µg/mL
change of flux of p-HCA through the skin [2, 7]: doubled
elevation of percent of p-HCA that permeates cadaver skin [2, 7]: 43%
elevation of percentage of p-HCA that remained within the skin [2, 7]: about 50%
p-HCA metabolized [3]: 3.6%
solubility in 30% hydroethanolic solution ([4]; 30% hydroethanolic solution, 25° C.): 0.75 wt %
solubility in PEG-4 ([4]; PEG-4, 25° C.): 18.5 wt %
solubility in PEG-6 ([4]; PEG-6, 25° C.): 19.7 wt %
solubility in PEG-8 ([4]; PEG-8, 25° C.): 19.7 wt %
solubility in butylene glycol ([4]; butylene glycol, 25° C.): 2.25 wt %
solubility in diethylene glycol ([4]; diethylene glycol, 25° C.): 18.1 wt %
solubility in ethanol ([4]; ethanol, 25° C.): 14.8 wt %
solubility in ethoxydiglycol ([4]; ethoxydiglycol, 25° C.): 19.7 %, by weight
solubility in glycereth-26 ([4]; glycereth-26, 25° C.): 7 wt %
solubility in pentylene glycol ([4]; pentylene glycol, 25° C.): 1.75 wt %
solubility in silicone fluid DC 193 ([4]; silicone fluid DC 193, 25° C.): 4.7 wt %
